US4098798A, “Adriamycins, process for their preparation and uses thereof” (Societa' Farmaceutici Italia S.p.A., priority 1974, dated 1978)
Values after ≈ are worked out from the molar mass of the structure shown. Read-outs that look alike come from different tables or passages of the source.

Assays:
HeLa cells = assay: Cloning Efficiency of Hela cells in vitro; assay type: cell-based; settings: for IC50: Homo sapiens, HeLa, 50% inhibition of colonies
Method: After treatment for 2,8 or 24 hours, HeLa cells were seeded (200 cells per plate) and the number of colonies determined 8 days later.
The ID50 represents the dose which gives a 50% of inhibition of colonies.

B-subtilis = assay: inhibition zones on agar-B-subtilis plates, paper disc technique; assay type: cell-based; settings: hydrochlorides, read-out: inhibition zone diameter
Ascites Sarcoma 180 = assay: Action on Ascites Sarcoma 180 in mice; assay type: in vivo, mice (Swiss CD 1); settings: for Average Survival time: one day after inoculation, untreated = 100%
Method: The tests were carried out on groups of 10 mice (Swiss CD 1). The compounds under examination were administered intraperitoneally in varying doses to the test animals one day after intraperitoneal inoculation with 1 × 10^6 tumor cells per animal. The average survival time is given in Table 1 as a percentage of the survival time of untreated animals, which is arbitrarily designated as 100%. Also given in Table 1 are the number of long term survivors.

[1] = cell proliferation in uninfected mouse embryo fibroblast cultures (cytotoxic action); assay type: cell-based; settings: mouse embryo fibroblasts, treatment of 3 days, read-out: Cytotoxic Action ID50
Method: (§1) The test compounds were evaluated on mouse embryo fibroblast cultures infected with MSV and on similar uninfected cultures. After a treatment of 3 days, the inhibiting doses (ID50) were evaluated on cell proliferation in uninfected cultures (cytotoxic action) and on MSV foci formation in infected cultures (antiviral action).

MSV = assay: Activity on MSV Production, focus assay; assay type: cell-based, Moloney Sarcoma Virus; settings: 0.05 γ/ml, 3 days; control 4.7 × 10^4
Method: MSV infected cultures were treated for 3 days, and the virus yields were determined in the cell and supernatant medium by focus assay in the presence of leukemia virus.

[2] = test system: Moloney Sarcoma Virus (MSV); assay: MSV foci formation in infected mouse embryo fibroblast cultures (antiviral action); assay type: cell-based; settings: 72 h, treatment of 3 days, read-out: Antiviral Action ID50
Method: as §1

## COc1cccc2c1C(=O)c1c(O)c3c(c(O)c1C2=O)C[C@@](O)(C(=O)CO)C[C@@H]3O[C@H]1C[C@H](N)[C@@H](O)[C@H](C)O1 [4'-Epi-adriamycin (α-anomer), 7-0-(3'-amino-2',3',6'-trideoxy-α-L-arabinohexopyranosyl)-adriamycinone]
HeLa cells; Table 7, 2h treatment, read-out: DI50 (the source's name)
  IC50: 0.85 µg/mL (≈ 1.56 µM)
HeLa cells; Table 7, 8h treatment, read-out: DI50 (the source's name)
  IC50: 0.7 µg/mL (≈ 1.29 µM)
HeLa cells; Table 7, 24h treatment, read-out: DI50 (the source's name)
  IC50: 0.36 µg/mL (≈ 0.662 µM)
HeLa cells; Table 8, 2h treatment, read-out: DI 50 (the source's name)
  IC50: 5 µg/mL (≈ 9.2 µM)
HeLa cells; Table 8, 8h treatment, read-out: DI 50 (the source's name)
  IC50: 0.2 µg/mL (≈ 0.368 µM)
HeLa cells; Table 8, 24h treatment, read-out: DI 50 (the source's name)
  IC50: 0.2 µg/mL (≈ 0.368 µM)
HeLa cells; Table 7, 0.1 μg/ml, 8h, control 125
  Average Number of Colonies: 158
HeLa cells; Table 7, 0.1 μg/ml, 24h, control 223
  Average Number of Colonies: 216
HeLa cells; Table 7, 0.25 μg/ml, 8h, control 125
  Average Number of Colonies: 150
HeLa cells; Table 7, 0.25 μg/ml, 24h, control 223
  Average Number of Colonies: 199
HeLa cells; Table 7, 0.5 μg/ml, 8h, control 125
  Average Number of Colonies: 92
HeLa cells; Table 7, 0.5 μg/ml, 24h, control 223
  Average Number of Colonies: 52
HeLa cells; Table 7, 1 μg/ml, 2h, control 132
  Average Number of Colonies: 57
HeLa cells; Table 7, 1 μg/ml, 8h, control 125
  Average Number of Colonies: 36
HeLa cells; Table 7, 1 μg/ml, 24h, control 223
  Average Number of Colonies: 29
HeLa cells; Table 8, 0.125 μg/ml, 2h, control 156
  Average Number of Colonies: 245
HeLa cells; Table 8, 0.125 μg/ml, 8h, control 189
  Average Number of Colonies: 170
HeLa cells; Table 8, 0.25 μg/ml, 8h, control 189
  Average Number of Colonies: 43
HeLa cells; Table 8, 0.25 μg/ml, 24h, control 136
  Average Number of Colonies: 46
HeLa cells; Table 8, 0.5 μg/ml, 2h, control 156
  Average Number of Colonies: 130
HeLa cells; Table 8, 0.5 μg/ml, 8h, control 189
  Average Number of Colonies: 45
HeLa cells; Table 8, 0.5 μg/ml, 24h, control 136
  Average Number of Colonies: 38
HeLa cells; Table 8, 1 μg/ml, 8h, control 189
  Average Number of Colonies: 27
HeLa cells; Table 8, 1 μg/ml, 24h, control 136
  Average Number of Colonies: 17
B-subtilis; 5 μg
  zone of inhibition at 5 µg/disc: 19 mm
B-subtilis; 10 μg
  zone of inhibition at 10 µg/disc: 21 mm
B-subtilis; 15 μg
  zone of inhibition at 15 µg/disc: 22 mm
B-subtilis; 20 μg
  zone of inhibition at 20 µg/disc: 23 mm
Ascites Sarcoma 180; 0.5 mg/Kg i.p.
  Long Term Survivors (after 60 days): 0/10
  Average Survival time: 135%
Ascites Sarcoma 180; 2 mg/Kg i.p.
  Long Term Survivors (after 60 days): 0/10
  Average Survival time: 184%
Ascites Sarcoma 180; 10 mg/Kg i.p.
  Long Term Survivors (after 60 days): 1/8
  Average Survival time: 234%

## COc1cccc2c1C(=O)c1c(O)c3c(c(O)c1C2=O)CC(O)(C(=O)CO)CC3OC1CC(N)C(O)C(C)O1 (stereo not drawn) [4'-Epi-adriamycin]
[1]
  CC50 at 72 h: 0.01 µg/mL (≈ 0.0184 µM)
MSV
  virus yield (FFU/ml): 4 × 10^2 FFU/ml
[2]
  IC50: > 0.006 µg/mL
